In ChEMBL document CHEMBL5465560, “Selectivity Literature for EUbOPEN Chemogenomic Library” (2024):

Columns and labels:
[1] = target: Calcium/calmodulin-dependent protein kinase type II subunit alpha (Homo sapiens, UniProt Q9UQM7); assay: Selectivity interaction (Kinase panel (radiometric inhibition assay)) EUB0000651a CAMK2A
[2] = target: Leukocyte tyrosine kinase receptor (Homo sapiens, UniProt P29376); assay: Selectivity interaction (Kinase panel (radiometric inhibition assay)) EUB0000651a LTK
[3] = target: Protein kinase C alpha type (Homo sapiens, UniProt P17252); assay: Selectivity interaction (Kinase panel (radiometric inhibition assay)) EUB0000651a PRKCA
[4] = target: T1, Tyrosine-protein kinase SYK (Homo sapiens, UniProt P43405); assay: Selectivity interaction (Kinase panel (radiometric inhibition assay)) EUB0000651a SYK
[5] = target: T2, cAMP-dependent protein kinase catalytic subunit alpha (Homo sapiens, UniProt P17612); assay: Selectivity interaction (Kinase panel (radiometric inhibition assay)) EUB0000651a PRKACA
[6] = target: Tyrosine-protein kinase Lck (Homo sapiens, UniProt P06239); assay: Selectivity interaction (TR-FRET binding assay) EUB0000644a LCK
[7] = target: Tyrosine-protein kinase ABL1 (Homo sapiens, UniProt P00519); assay: Selectivity interaction (TR-FRET binding assay) EUB0000644a ABL1
[8] = target: Cyclin-dependent kinase 2 (Homo sapiens, UniProt P24941); assay: Selectivity interaction (TR-FRET binding assay) EUB0000644a CDK2
[9] = target: Vascular endothelial growth factor receptor 2 (Homo sapiens, UniProt P35968); assay: Selectivity interaction (TR-FRET binding assay) EUB0000644a KDR
[10] = target: Cyclin-dependent kinase 11A (Homo sapiens, UniProt Q9UQ88); assay: Selectivity interaction (TR-FRET binding assay) EUB0000644a CDK11A
[11] = target: Ribosomal protein S6 kinase alpha-3 (Homo sapiens, UniProt P51812); assay: Selectivity interaction (TR-FRET binding assay) EUB0000644a RPS6KA3
[12] = target: T2, cAMP-dependent protein kinase catalytic subunit alpha; assay: Selectivity interaction (TR-FRET binding assay) EUB0000644a PRKACA
[13] = target: Epidermal growth factor receptor (Homo sapiens, UniProt P00533); assay: Selectivity interaction (TR-FRET binding assay) EUB0000644a EGFR
[14] = target: T1, Tyrosine-protein kinase SYK; assay: Selectivity interaction (TR-FRET binding assay) EUB0000644a SYK
[15] = target: 5'-AMP-activated protein kinase catalytic subunit alpha-1 (Homo sapiens, UniProt Q13131); assay: Selectivity interaction (TR-FRET binding assay) EUB0000644a PRKAA1
[16] = target: G protein-coupled receptor kinase 5 (Homo sapiens, UniProt P34947); assay: Selectivity interaction (TR-FRET binding assay) EUB0000644a GRK5
[17] = target: Mitogen-activated protein kinase 14 (Homo sapiens, UniProt Q16539); assay: Selectivity interaction (TR-FRET binding assay) EUB0000644a MAPK14
[18] = target: Mitogen-activated protein kinase 8 (Homo sapiens, UniProt P45983); assay: Selectivity interaction (TR-FRET binding assay) EUB0000644a MAPK8
CDK7/Cyclin H/MNAT1 = CDK7/Cyclin H/MNAT1 (Homo sapiens, UniProt P50613); assay: Selectivity interaction (TR-FRET binding assay) EUB0000644a […]; assay type: protein-complex assay
CDK8/Cyclin C = CDK8/Cyclin C (Homo sapiens, UniProt P49336); assay: Selectivity interaction (TR-FRET binding assay) EUB0000644a CDK8; assay type: protein-complex assay
Aurora kinase B = Aurora kinase B (Homo sapiens, UniProt Q96GD4); assay: Selectivity interaction (TR-FRET binding assay) EUB0000644a AURKB
[19] = target: ALK tyrosine kinase receptor (Homo sapiens, UniProt Q9UM73); assay: Selectivity interaction (TR-FRET binding assay) EUB0000644a ALK
[20] = target: Hepatocyte growth factor receptor (Homo sapiens, UniProt P08581); assay: Selectivity interaction (TR-FRET binding assay) EUB0000644a MET
[21] = target: Tyrosine-protein kinase BTK (Homo sapiens, UniProt Q06187); assay: Selectivity interaction (TR-FRET binding assay) EUB0000644a BTK

Chain of Cyclin-dependent kinase 11A (Q9UQ88 whole entry): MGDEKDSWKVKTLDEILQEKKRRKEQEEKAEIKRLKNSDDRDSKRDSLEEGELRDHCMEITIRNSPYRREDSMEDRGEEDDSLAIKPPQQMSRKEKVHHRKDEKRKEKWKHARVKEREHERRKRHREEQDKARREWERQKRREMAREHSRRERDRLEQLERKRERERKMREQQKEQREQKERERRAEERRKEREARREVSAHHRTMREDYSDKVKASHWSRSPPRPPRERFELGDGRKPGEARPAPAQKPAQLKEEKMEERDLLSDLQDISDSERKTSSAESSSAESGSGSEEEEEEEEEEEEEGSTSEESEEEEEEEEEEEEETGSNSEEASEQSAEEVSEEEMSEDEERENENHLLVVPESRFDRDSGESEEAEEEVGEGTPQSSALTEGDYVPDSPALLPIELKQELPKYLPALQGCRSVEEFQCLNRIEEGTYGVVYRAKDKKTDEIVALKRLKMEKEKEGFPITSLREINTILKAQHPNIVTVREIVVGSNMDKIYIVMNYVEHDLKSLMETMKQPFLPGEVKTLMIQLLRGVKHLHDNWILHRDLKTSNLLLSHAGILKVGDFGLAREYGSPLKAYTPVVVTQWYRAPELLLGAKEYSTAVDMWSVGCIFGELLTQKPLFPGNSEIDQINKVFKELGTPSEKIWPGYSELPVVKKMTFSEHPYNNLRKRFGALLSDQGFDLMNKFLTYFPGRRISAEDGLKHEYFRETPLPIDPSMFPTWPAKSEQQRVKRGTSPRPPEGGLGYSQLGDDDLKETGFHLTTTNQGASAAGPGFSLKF
Chain of ALK tyrosine kinase receptor (Q9UM73 whole entry): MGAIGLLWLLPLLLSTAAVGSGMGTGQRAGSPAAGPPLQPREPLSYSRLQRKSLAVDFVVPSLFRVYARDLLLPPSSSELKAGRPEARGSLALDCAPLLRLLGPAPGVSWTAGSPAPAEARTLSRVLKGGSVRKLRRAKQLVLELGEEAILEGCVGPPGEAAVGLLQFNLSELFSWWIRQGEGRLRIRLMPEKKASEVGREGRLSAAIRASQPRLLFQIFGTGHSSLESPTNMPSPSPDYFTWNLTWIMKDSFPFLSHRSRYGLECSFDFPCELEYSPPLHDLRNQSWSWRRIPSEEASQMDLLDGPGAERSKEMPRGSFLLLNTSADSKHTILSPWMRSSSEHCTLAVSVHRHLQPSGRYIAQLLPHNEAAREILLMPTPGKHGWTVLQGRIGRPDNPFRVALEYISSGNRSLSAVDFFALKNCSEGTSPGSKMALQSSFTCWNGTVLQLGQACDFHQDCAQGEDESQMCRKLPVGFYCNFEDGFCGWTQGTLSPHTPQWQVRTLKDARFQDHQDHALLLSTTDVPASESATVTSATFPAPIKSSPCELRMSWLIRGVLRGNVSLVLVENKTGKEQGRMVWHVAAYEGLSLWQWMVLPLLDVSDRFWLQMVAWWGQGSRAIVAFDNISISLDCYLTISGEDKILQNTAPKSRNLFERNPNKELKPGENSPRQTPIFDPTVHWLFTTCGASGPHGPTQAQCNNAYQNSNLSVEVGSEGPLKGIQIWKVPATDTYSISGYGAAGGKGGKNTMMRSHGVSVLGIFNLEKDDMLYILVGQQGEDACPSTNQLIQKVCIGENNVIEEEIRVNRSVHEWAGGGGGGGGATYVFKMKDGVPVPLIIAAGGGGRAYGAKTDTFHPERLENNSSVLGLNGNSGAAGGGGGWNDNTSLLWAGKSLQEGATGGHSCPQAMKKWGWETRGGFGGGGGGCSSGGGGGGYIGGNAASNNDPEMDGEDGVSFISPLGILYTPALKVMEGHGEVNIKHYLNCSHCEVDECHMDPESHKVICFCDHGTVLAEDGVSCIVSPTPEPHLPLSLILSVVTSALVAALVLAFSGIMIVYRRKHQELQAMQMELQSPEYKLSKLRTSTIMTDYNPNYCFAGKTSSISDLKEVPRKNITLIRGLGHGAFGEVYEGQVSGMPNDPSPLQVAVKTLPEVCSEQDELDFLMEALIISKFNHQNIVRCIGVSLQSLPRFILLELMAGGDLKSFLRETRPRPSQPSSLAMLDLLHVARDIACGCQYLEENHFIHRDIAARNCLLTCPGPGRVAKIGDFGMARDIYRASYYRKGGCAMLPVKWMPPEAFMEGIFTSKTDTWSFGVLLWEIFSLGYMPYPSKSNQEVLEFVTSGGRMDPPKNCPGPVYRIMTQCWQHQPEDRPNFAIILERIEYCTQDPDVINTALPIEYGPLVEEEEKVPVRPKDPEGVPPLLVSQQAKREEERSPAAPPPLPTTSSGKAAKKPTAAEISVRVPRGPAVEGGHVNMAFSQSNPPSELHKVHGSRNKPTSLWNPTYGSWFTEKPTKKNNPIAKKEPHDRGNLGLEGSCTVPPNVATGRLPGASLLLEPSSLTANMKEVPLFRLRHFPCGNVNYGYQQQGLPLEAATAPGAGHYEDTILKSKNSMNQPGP
Chain of Leukocyte tyrosine kinase receptor (P29376 whole entry): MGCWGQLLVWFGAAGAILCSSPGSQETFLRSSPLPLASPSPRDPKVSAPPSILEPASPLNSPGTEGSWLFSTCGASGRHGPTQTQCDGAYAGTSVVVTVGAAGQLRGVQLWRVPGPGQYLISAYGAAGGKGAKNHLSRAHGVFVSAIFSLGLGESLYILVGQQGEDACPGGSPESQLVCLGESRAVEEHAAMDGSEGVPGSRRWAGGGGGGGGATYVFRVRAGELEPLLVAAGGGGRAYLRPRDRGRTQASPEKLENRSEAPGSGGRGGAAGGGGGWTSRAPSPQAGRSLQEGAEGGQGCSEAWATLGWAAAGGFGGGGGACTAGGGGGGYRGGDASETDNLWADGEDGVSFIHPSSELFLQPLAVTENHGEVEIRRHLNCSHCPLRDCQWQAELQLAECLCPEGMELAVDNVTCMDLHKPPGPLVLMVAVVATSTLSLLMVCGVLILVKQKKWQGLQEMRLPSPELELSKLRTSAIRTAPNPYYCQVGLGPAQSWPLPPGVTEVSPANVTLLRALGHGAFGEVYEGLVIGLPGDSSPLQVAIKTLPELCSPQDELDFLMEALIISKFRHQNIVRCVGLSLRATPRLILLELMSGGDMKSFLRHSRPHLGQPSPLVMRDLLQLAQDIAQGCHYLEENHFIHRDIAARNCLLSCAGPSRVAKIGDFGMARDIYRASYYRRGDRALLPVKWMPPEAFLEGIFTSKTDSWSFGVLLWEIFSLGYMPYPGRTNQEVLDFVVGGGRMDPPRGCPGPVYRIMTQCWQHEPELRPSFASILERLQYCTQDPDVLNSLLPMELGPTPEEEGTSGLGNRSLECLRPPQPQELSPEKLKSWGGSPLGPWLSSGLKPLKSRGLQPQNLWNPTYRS
Chain of Tyrosine-protein kinase Lck (P06239 whole entry): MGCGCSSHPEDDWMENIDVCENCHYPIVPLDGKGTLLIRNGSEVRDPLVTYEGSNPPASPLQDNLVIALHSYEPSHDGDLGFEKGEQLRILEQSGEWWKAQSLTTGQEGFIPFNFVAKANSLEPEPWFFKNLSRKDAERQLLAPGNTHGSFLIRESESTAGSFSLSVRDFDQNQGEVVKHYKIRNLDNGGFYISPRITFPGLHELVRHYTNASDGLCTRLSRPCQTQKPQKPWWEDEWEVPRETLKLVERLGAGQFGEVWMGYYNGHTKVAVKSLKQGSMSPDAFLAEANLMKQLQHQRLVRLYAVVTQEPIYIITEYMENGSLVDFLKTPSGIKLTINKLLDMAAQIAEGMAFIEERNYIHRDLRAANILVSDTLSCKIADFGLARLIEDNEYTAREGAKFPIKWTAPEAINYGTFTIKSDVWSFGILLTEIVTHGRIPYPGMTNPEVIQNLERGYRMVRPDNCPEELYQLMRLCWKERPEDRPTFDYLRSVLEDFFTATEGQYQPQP
Chain of Tyrosine-protein kinase ABL1 (P00519 whole entry): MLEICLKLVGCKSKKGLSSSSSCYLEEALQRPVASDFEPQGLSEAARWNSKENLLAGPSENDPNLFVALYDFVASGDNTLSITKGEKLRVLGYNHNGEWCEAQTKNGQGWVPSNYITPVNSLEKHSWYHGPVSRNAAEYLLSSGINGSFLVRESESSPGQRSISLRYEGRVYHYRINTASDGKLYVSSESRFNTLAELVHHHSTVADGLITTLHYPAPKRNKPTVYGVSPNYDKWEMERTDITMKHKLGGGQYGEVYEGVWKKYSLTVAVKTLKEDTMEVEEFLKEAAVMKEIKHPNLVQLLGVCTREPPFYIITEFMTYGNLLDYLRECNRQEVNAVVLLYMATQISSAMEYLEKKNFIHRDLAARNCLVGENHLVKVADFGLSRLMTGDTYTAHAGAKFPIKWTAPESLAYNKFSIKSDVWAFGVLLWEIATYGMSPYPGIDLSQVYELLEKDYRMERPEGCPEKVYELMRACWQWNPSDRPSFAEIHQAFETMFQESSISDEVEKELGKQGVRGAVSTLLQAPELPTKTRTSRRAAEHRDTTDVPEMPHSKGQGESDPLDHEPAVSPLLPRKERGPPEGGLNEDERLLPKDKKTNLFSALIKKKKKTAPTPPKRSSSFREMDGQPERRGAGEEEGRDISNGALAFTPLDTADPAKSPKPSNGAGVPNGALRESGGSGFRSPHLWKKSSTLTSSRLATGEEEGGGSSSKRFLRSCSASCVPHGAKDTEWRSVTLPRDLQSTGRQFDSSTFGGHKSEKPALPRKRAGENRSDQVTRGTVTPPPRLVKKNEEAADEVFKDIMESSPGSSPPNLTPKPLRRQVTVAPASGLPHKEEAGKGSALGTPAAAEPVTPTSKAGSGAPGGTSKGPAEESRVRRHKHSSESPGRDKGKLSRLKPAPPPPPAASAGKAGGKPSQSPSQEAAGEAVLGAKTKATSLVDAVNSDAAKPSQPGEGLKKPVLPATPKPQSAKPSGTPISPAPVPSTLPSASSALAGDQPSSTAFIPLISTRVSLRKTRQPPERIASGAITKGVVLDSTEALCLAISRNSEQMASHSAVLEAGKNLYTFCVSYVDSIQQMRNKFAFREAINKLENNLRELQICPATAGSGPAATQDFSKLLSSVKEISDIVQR

SMILES: COc1cc(C)c(Sc2cnc(NC(=O)c3ccc(CNC(C)C(C)(C)C)cc3)s2)cc1C(=O)N1CCN(C(C)=O)CC1 (centres undefined)
- IC50 [1]: 33.5 µM
- IC50 [2]: 2.4 µM
- IC50 [3]: 24 µM
- IC50 [4]: > 50 µM
- IC50 [5]: > 50 µM

SMILES: CC[C@@H]1CN(C(=O)NCC(F)(F)F)C[C@@H]1c1cnc2cnc3[nH]ccc3n12 [UPADACITINIB]
- IC50 [6]: 10 µM
- IC50 [7]: > 10 µM
- IC50 [8]: > 10 µM
- IC50 [9]: 1.5 µM
- IC50 [10]: > 10 µM
- IC50 [11]: 9.6 µM
- IC50 [12]: > 10 µM
- IC50 [13]: > 10 µM
- IC50 [14]: > 10 µM
- IC50 [15]: 4.5 µM
- IC50 [16]: 7.9 µM
- IC50 [17]: > 10 µM
- IC50 [18]: > 10 µM
- IC50 (CDK7/Cyclin H/MNAT1): > 10 µM
- IC50 (CDK8/Cyclin C): > 10 µM
- IC50 (Aurora kinase B): 5.5 µM
- IC50 [19]: 5.5 µM
- IC50 [20]: > 10 µM
- IC50 [21]: > 10 µM
